Counter-ions that a name gives are not always drawn.
Legend:
[1] = system: LPS-stimulated peritoneal macrophages of C57bl/6j mice; test: Inhibition of LPS-induced NO synthesis (nitrite accumulation, Griess reagent) in peritoneal macrophages; assay type: cell-based, mouse; conditions: 100 μM; for inhibition at 100 µM: Mus musculus, Peritoneal macrophage, 22 h, read-out: Inhibition of NO Synthesis vs. LPS Control; for inhibition at 100 µM / Inhibition of NO Synthesis vs. LPS Control: m ± SD
Description: (§1) Peritoneal macrophages (PM) were isolated from the peritoneal exudate of 30 male C57bl/6j mice. To accumulate PM, 1 mL of 3% peptone solution was injected intraperitoneally. After 3 days, the mice were euthanized by cervical dislocation. Cells of peritoneal exudate were obtained by aseptic washing of the abdominal cavity with 5 mL of sterile Hanks’s solution (+4–6 °C) without calcium and magnesium ions. The total number and viability of cells were assessed in a Goryaev counting chamber (Russia) with a 0.4% trypan blue staining (Sigma-Aldrich, St. Louis, MO, USA). The cell concentration was adjusted to 1.0 × 10^6 cells/mL in DMEM (Gibco) supplemented with 2 mM L-glutamine (Gibco, Waltham, MA, USA), 10% heat-inactivated fetal bovine serum (BioClot, Bavaria, Germany), 100 U/mL penicillin, and […] streptomycin (Gibco) and plated 200 μL/well in 96-well transparent plates (SPL Life Sciences Co., Ltd., Pocheon-si, Korea). After 2 h at 37 °C in a humidified atmosphere with 5% CO2, the wells were washed to remove non-adherent cells. After 24 h of incubation, 20 μL of the supernatants were substituted with 20 μL of solutions of test compounds, followed by E. coli O127:B8 LPS (100 ng/mL final concentration) after 30 min. The experiments were run in 3 independent replicates.
The accumulation of the nitrite anion (a stable end product of NO decomposition produced by iNOS) in supernatants was determined using a standard Griess reagent. Briefly, 50 μL of supernatants were collected 22 h after incubation of PM, and the test and control compounds were mixed with 50 μL of 1% […] in 2.5% H3PO4 and 50 μL of 0.1% N-(1-naphthyl) ethylenediamine in 2.5% H3PO4. After incubation at 23 °C for 10 min in an orbital shaker, the optical density was determined at a wavelength of 550 nm with a microplate reader Infinite M200 PRO (Tecan, Grödig, Austria).

[2] = system: LPS-stimulated peritoneal macrophages of C57bl/6j mice; test: Cell viability of LPS-stimulated macrophages, MTT test; assay type: cell-based; conditions: 100 μM
Description: as §1
The activity of lactate dehydrogenase (LDH) in a cell culture medium served as a marker of membrane permeability and cell death. Aliquotes of supernatants were taken after 24 h of inoculation with test compounds, mixed with 250 μL of […] NADH solution in 54 mM phosphate-buffered saline (pH 7.5). Then, 25 μL of a 6.48 mM pyruvate solution was added to the mixture. The optical density was followed at a wavelength of 340 nm for 20 min. The MTT-test was performed 24 h after incubations of cells with tested compounds. Briefly, 20 μL of MTT solution was added to each well, incubated at 37 °C in a humidified atmosphere containing 5% CO2 for 4 h. The culture medium was removed, the cells were lysed, and formazan crystals were dissolved in 150 μL DMSO. The plates were shaken at room temperature for 10 min, and the optical density was measured in a microplate reader Infinite M200 PRO (Tecan, Grödig, Austria) at a wavelength of 565 nm.

[3] = system: peritoneal macrophages of C57bl/6j mice; test: Yeast phagocytosis assay and macrophage spreading; assay type: cell-based, mouse
Description: Next, we evaluated lead compound 9g for immunodepressant activity in parallel with the reference drug dexamethasone. Yeast phagocytosis was assessed by microscopic examination as the number of phagocytes per 100 macrophages and as the number of phagocytosed yeast cells in each phagocyte. Cell viability was assessed as lactate dehydrogenase activity in cell supernatants, which correlates with increased cell membrane permeability.
Peritoneal macrophages of C57bl/6j mice were cultured in a 24-well plate at a volume of 500 μL/well (1 × 10^5 cells/mL) for 24 h. Test compounds or DMSO were added to wells in triplicate followed by 50 μL of 1% yeast suspension, and the plates were incubated for 40 min. After 24 or 72 h, the medium was removed. The cells were fixed with May–Grunwald methanol dye and stained with Azur-Eosin in Romanovsky’s modification for 45 min at room temperature, washed, air-dried, and analyzed using a microscope Mikmed-6 (Russia), equipped with a digital camera. The study was performed in three technical replicates and two series; 100 macrophages were processed in each sample to count the captured yeast cells. Macrophage spreading was assessed as a number of pseudopodia.

[4] = system: C57BL/6J mice; test: LPS-induced acute lung injury in mice; assay type: in vivo, mouse
Description: The randomization of C57bl/6j mice into experimental and control groups was based on body weight and behavioral activity assessed in an open field test 24 h before the start of the experiment. The next day, mice were treated with vehicle or test compounds 1 h before intratracheal instillation of LPS solution in sterile saline.
The randomization of C57BL/6J mice was performed by body weight and motor activity in an open field test. Dexamethasone (5 mg/kg) and 9g (30 mg/kg) were administered intraperitoneally in 10 mL/kg sterile saline. The control animals received an equal volume of the vehicle. After 1 h, the mice were anesthetized with isoflurane inhalation until their breathing rate was decreased. The mice were suspended by the front incisors on an inclined surgical table, the tongue was pulled out with narrow curved tweezers, and 1 mg/mL of E. coli O127:B8 LPS (Sigma-Aldrich, St. Louis, MO, USA) in 1 mL/kg sterile saline was injected into the back of the oropharynx. Intact control animals received an equal volume of sterile saline similarly.
The animals were placed in the center of a round open field with an arena of 44 cm diameter and 32 cm wall height under 300 lux lighting. During 5 min of observation, horizontal motor activity, vertical motor activity, time spent in the central part, the number of exits to the central part, and exploratory activity parameters were recorded. Body temperature was determined rectally.
The mice were anesthetized with 500 mg/kg chloral hydrate (Sigma-Aldrich, St. Louis, MO, USA) intraperitoneally 24 h after LPS administration. Blood was taken by intracardiac puncture in test tubes with heparin. The blood samples were centrifuged at 1000 g and 4 °C for 15 min on a 2–16PK centrifuge (Sigma, Germany), and plasma was separated and stored at −80 °C until the assay. Thoracotomy was performed, the ligature was applied to the left bronchus and the trachea was cannulated with a 20 G needle. The right lung was washed twice with 0.7 mL of warm sterile saline. After combining aliquots, the bronchoalveolar lavage (BAL) was centrifuged at 800 g and 4 °C for 10 min. The supernatant was separated and stored at −80 °C until the assay. The residual cell pellet was resuspended in 50 μL of PBS for further study. The left lung was washed in saline and placed in 10% buffered formalin for morphological evaluation.
The total number of leukocytes in heparinized blood was determined after staining with methylene blue in Goryaev’s counting chamber at ×100 magnification. Smears of blood and BAL cell pellets were air-dried, fixed according to May–Grunwald for 3 min, and stained according to Romanowsky–Giemsa. After 30 min, the slides were washed, air-dried, and examined with immersion objective (×1000 total magnification). On each slide, a total of at least 100 cells were calculated.
The concentration of total protein in BAL supernatants was determined spectrophotometrically with the pyrogallol red method, and the protein in the blood plasma was determined with the biuret method using commercial kits (Vital, Saint Petersburg, Russia) and bovine serum albumin as the standard. The lung permeability index was calculated as the protein concentration in the BAL to plasma ratio.
Morphological markers of inflammation in lung tissue were assessed in a semi-quantitative way on paraffin sections stained with hematoxylin and eosin. The sections were examined under a light microscope (Zeiss, Germany) by a double-blind method. The score of inflammation was determined as follows: 0—the presence of single inflammatory cells; 1—weak inflammation, inflammatory cells infiltrate no more than 10% of the lung tissue, including interalveolar cell partitions; 2—moderate inflammation, inflammatory cells infiltrate no more than 50% of the structures of the lung, but the interstitial tissue is identified; 3—severe inflammation, inflammatory cells densely infiltrate more than 50% of the lung tissue and airways.

[5] = 24 h after LPS, dexamethasone 5 mg/kg, 9g 30 mg/kg i.p.

SMILES: Cc1nc2nnnn2c(NC(C)C)c1[N+](=O)[O-] [Compound 9a, N-Isopropyl-5-methyl-6-nitrotetrazolo[1,5-a]pyrimidin-7-amine]
- inhibition at 100 µM [1]: 47.7 ± 6.98%
- Cell Viability vs. LPS Control, MTT Test ([2]; male, C57bl/6j, mouse, 24 h): 73.47 ± 12.07%

SMILES: Cc1nc2nnnn2c(NC(C)(C)C)c1[N+](=O)[O-] [Compound 9b, N-Tert-Butyl-5-methyl-6-nitrotetrazolo[1,5-a]pyrimidin-7-amine]
- inhibition at 100 µM [1]: 37 ± 3.25%
- Cell Viability vs. LPS Control, MTT Test ([2]; male, C57bl/6j, mouse, 24 h): 104.9 ± 5.87%

SMILES: Cc1nc2nnnn2c(NCCc2ccc(Cl)cc2)c1[N+](=O)[O-] [Compound 9f, N-[2-(4-Chlorophenyl)ethyl]-5-methyl-6-nitrotetrazolo-[1,5-a]pyrimidin-7-amine]
- inhibition at 100 µM [1]: 35.8 ± 4.45%
- Cell Viability vs. LPS Control, MTT Test ([2]; male, C57bl/6j, mouse, 24 h): 102.67 ± 6.35%

SMILES: Cc1[nH]c2nc(-c3ccc([N+](=O)[O-])o3)nn2c(=O)c1[N+](=O)[O-] [Compound 13, 2-(5-Nitrofur-2-yl)-5-methyl-6-nitro-1,2,4-triazolo[1,5-a]pyrimidin-7-one aminoguanidinium salt]
- Inhibition of nitric oxide synthesis (in words) [1]: comparable to that of the tetrazolopyrimidine series
- Inhibition of NO Synthesis vs. LPS Control [1]: 58.97 ± 7.07 %
- Cell Viability vs. LPS Control, MTT Test ([2]; m ± SD): 96.97 ± 7.18%

SMILES: Cc1[nH]c2nc(-c3ccc([N+](=O)[O-])o3)nn2c(=O)c1[N+](=O)[O-] [Compound 14, 2-(5-Nitrofur-2-yl)-5-methyl-6-nitro-1,2,4-triazolo[1,5-a]pyrimidin-7-one guanidinium salt]
- Inhibition of nitric oxide synthesis (in words) [1]: did not demonstrate inhibition of nitric oxide synthesis
- Inhibition of NO Synthesis vs. LPS Control [1]: 16.09 ± 5.78%
- Cell Viability vs. LPS Control, MTT Test ([2]; m ± SD): 111.95 ± 8.67%

SMILES: C[C@@H]1C[C@H]2[C@@H]3CCC4=CC(=O)C=C[C@]4(C)[C@@]3(F)[C@@H](O)C[C@]2(C)[C@@]1(O)C(=O)CO [Dexamethasone, reference compound]
- Suppression of phagocytosis ([3]; after 24-h of incubation, data not shown): significantly suppressed phagocytosis
- Decrease of the mean number of phagocytosed yeast cells ([3]; after 72 h of incubation): 59%
- Inhibition of NO Synthesis vs. LPS Control [1]: 90.91 ± 5.53 %
- Cell Viability vs. LPS Control, MTT Test ([2]; male, C57bl/6j, mouse, 24 h): 104.21 ± 2.18%
- Blood leukocyte subpopulations ([4]; 24 h after LPS): normalized leukocyte subpopulations to the values of intact animals
- CD68+ cells in lung tissue, immunostaining ([4]; 24 h after LPS): rarely detected
- LPS-induced lung lesions, histologic scoring (hemorrhage and neutrophil infiltration) ([4]; 24 h after LPS, H&E, semi-quantitative): significantly ameliorated
- Blood plasma IL-6 level [4, 5]: normalized the blood plasma IL-6 level
- Permeability of pulmonary vessels (lung permeability index) [4, 5]: prevent the increase in permeability of pulmonary vessels
- Horizontal motor activity, open field test ([4]; 24 h after LPS, dexamethasone 5 mg/kg, 9g 30 mg/kg i.p. 1 h before LPS): significant improvement
- Segmented neutrophils count in BAL (in words) ([4]; 24 h after LPS, monocytes in BAL increased): significantly decreased the segmented neutrophils count
- Spleen mass and lymphocyte content (markers of immunodepression) ([4]; LPS-treated mice, dexamethasone 5 mg/kg, 9g 30 mg/kg i.p.): significantly reduced
- LPS-induced hypothermia ([4]; body temperature determined rectally): attenuated LPS-induced hypothermia
- Segmented neutrophils, share of BAL cells ([4]; bronchoalveolar lavage 24 h after LPS, dexamethasone 5 mg/kg, 9g 30 mg/kg i.p.): 22.5%
- Number of center entries and time in the center, open field test ([4]; dexamethasone 5 mg/kg, 9g 30 mg/kg i.p.): restored the number of center entries and time in the center to intact levels

SMILES: Cc1nc2nnnn2c(NCCCO)c1[N+](=O)[O-] [Compound 9d, 3-[(5-Methyl-6-nitrotetrazolo[1,5-a]pyrimidin-7-yl)-amino]propanol]
- inhibition at 100 µM [1]: 40.3 ± 5.14%
- Cell Viability vs. LPS Control, MTT Test ([2]; male, C57bl/6j, mouse, 24 h): 116.6 ± 8.97%

SMILES: Cc1nc2nnnn2c(NCCO)c1[N+](=O)[O-] [Compound 9c, 2-[(5-Methyl-6-nitrotetrazolo[1,5-a]pyrimidin-7-yl)-amino]ethanol]
- inhibition at 100 µM [1]: 54.2 ± 11.5%
- Cell Viability vs. LPS Control, MTT Test ([2]; male, C57bl/6j, mouse, 24 h): 109.0 ± 2.00%

SMILES: Cc1nc2nnnn2c(NCC(O)CO)c1[N+](=O)[O-] (stereo not shown) [Compound 9e, 3-[(5-Methyl-6-nitrotetrazolo[1,5-a]pyrimidin-7-yl)-amino]propane-1,2-diol]
- inhibition at 100 µM [1]: 21.5 ± 2.74%
- Cell Viability vs. LPS Control, MTT Test ([2]; male, C57bl/6j, mouse, 24 h): 94.98 ± 12.48%

SMILES: C#CCSc1nc2ncc([N+](=O)[O-])c(NCCc3ccc(O)cc3)n2n1 [Compound 10g, 4-{2-[(6-Nitro-2-(prop-2-yn-1-ylsulfanyl)[1,2,4]triazolo[1,5-a]pyrimidin-7-yl)amino]ethyl}phenol]
- inhibition at 100 µM [1]: 28.5 ± 3.21%
- Cell Viability vs. LPS Control, MTT Test ([2]; male, C57bl/6j, mouse, 24 h): 30.9 ± 7.7 %

SMILES: C#CCSc1nc2ncc([N+](=O)[O-])c(NCCc3ccc(Cl)cc3)n2n1 [Compound 10f, N-(4-Chlorophenethyl)-6-nitro-2-(prop-2-yn-1-yl-sulfanyl)[1,2,4]triazolo[1,5-a]pyrimidin-7-amine]
- inhibition at 100 µM [1]: 50.6 ± 1.27%
- Cell Viability vs. LPS Control, MTT Test ([2]; male, C57bl/6j, mouse, 24 h): 38.37 ± 6.89 %

— PMC9146423, “Discovery of Nitro-azolo[1,5-a]pyrimidines with Anti-Inflammatory and Protective Activity against LPS-Induced Acute Lung Injury” (Pharmaceuticals, 2022)
